Measurements: publication PMC9728511, “Direct formation and site-selective elaboration of methionine sulfoximine in polypeptides” (Chemical Science, 2022)

Test system: glutamine synthetase (GS)
Test: glutamine synthetase inhibition assay (glutamine synthetase activity assay kit, Abcam)
Assay type: biochemical
Details: for Inhibition (%) of glutamine synthetase, Assay 1: Table S4, assay 1 of 3; for Inhibition (%) of glutamine synthetase, Assay 1 / Inhibition (%) of glutamine synthetase, Assay 2 / Inhibition (%) of glutamine synthetase, Assay 3: 1 mM inhibitor final concn, enzyme pre-incubated with inhibitor 37 °C 10 min, colorimetric ADP detection, A570 (average of 3 readings), background subtracted, vs enzyme control; for Inhibition (%) of glutamine synthetase, Assay 1 / Inhibition (%) of glutamine synthetase, Assay 2 / Inhibition (%) of glutamine synthetase, Assay 3 / Average inhibition (%) of glutamine synthetase: reaction 37 °C 60 min; for Inhibition (%) of glutamine synthetase, Assay 2: Table S5, assay 2 of 3; for Inhibition (%) of glutamine synthetase, Assay 3: Table S6, assay 3 of 3; for Average inhibition (%) of glutamine synthetase: Table S7, average of assay 1, 2 and 3 (mean of 3 independent experiments), 1 mM inhibitor, pre-incubation 37 °C 10 min, A570; for inhibitory activity on glutamine synthetase compared with MSO: screen at 1 mM inhibitor concentration (Fig. 4), comparison in words
Method: Assays were performed at 1 mM inhibitor concentration using a glutamine synthetase activity assay kit (Abcam).
Procedure f or the glutamine synthetase inhibition assay (Figure 4)
In this assay, glutamine synthetase catalyzesthe transformation from g lutamate and ATP t o g lutamine and ADP. ADP in the subsequent reaction, in presence of ADP converter, ADP d eveloper and ADP pr obe , forms a colorimetric product that is measured at absorbance 570 nm.
1. Stock solutions of glutamine synthetase, ATP, ADP converter, and ADP developer were prepared according to the protocol by Abcam: https://www.abcam.com/ps/products/284/ab284572/documents/Glutamine-Synthetase- Activity-Assay- […]
GS assay buffer, glutamate, and ADP probe were used as supplied.
2. Glutamine synthetase (2 µL ) was pre- incubated with methionine sulfoximine (MSO) (2 µL, 10 mM, 1 mM final concn) and methionine sulfoximine peptides 1b -8b (2 µL, 10 mM, 1 mM final concn) at 37 °C for 10 min, protected from light. For enzyme control, GS assay buffer (2 µL ) was used instead of MSO or peptides 1b -8b. For background control, GS assay buffer (4 µL) without enzyme was used.
3. Substrate mix was prepared by mixing GS assay buffer (96 µL ), glutamate (24 µL ), and ATP (24 µL ).
The resulting substrate mix (12 µL) was added to each sample.
4. ADP reactio n mix was prepared by mixing GS assay buffer (42 µL), ADP probe (6 µL), ADP converter (6 µL), and ADP developer (6 µL ). The resulting ADP reaction mix (4 µL ) was added to each sample. The total reaction volume for each sample is 20 µL.
5. After incubation of the reaction mixture at 37 °C for 60 mi n , the absorbance at 570 nm (A570) was measured on a Thermo Scientific NanoDrop 2000c spectrophotometer. For each sample, A570 was measure […]
6. The background control reading was subtracted from test sample readings and enzyme control readings.
7. Inhibition of glutamine synthetase was det er mi ned by comparing A570 (test sample) and A570 ( enzyme
Percentage inhibition = A570 (enzyme control)−A570 (test sample)A570 (enzyme control) × 100%
8. The assay was repeated for 3 times and the percentage inhibition values are me a n ± S D of 3 independent

Row | Molecule | Inhibition (%) of glutamine synthetase, Assay 1 [%] | Inhibition (%) of glutamine synthetase, Assay 2 [%] | Inhibition (%) of glutamine synthetase, Assay 3 [%] | Average inhibition (%) of glutamine synthetase [%] | inhibitory activity on glutamine synthetase compared with MSO
1 | Ac-MGKFQ-NH2 [2b] | 29.2 | 28.6 | 33.0 | 30.3 | higher than that observed for MSO
2 | Ac-RPKPQQFFGLM-NH2 (substance P) [7b] | 1.7 | 3.1 | 3.7 | 2.8 | –
3 | Ac-FPQSGM-NH2 [5b] | 9.5 | 13.0 | 12.1 | 11.5 | –
4 | CS(=N)(=O)CC[C@H](N)C(=O)O (some centres unmarked) [MSO, methionine sulfoximine] | 18.1 | 18.8 | 19.2 | 18.7 | –

Second part, the molecule after the results:

Row | Inhibition (%) of glutamine synthetase, Assay 1 [%] | Inhibition (%) of glutamine synthetase, Assay 2 [%] | Inhibition (%) of glutamine synthetase, Assay 3 [%] | Average inhibition (%) of glutamine synthetase [%] | inhibitory activity on glutamine synthetase compared with MSO | Molecule
5 | 13.3 | 15.5 | 14.3 | 14.4 | – | Ac-VGMSWP-NH2 [4b]
6 | 35.3 | 33.6 | 36.1 | 35.0 | higher than that observed for MSO | Ac-SYSMEHFRWGKPV-NH2 (α-MSH) [8b]
7 | 16.8 | 17.2 | 19.0 | 17.7 | – | Ac-MGDFQ-NH2 [1b]
8 | 0.9 | 1.0 | 0.8 | – | – | Ac-YGMLNP-NH2 [3b]
9 | 28.6 | 26.2 | 24.1 | 26.3 | higher than that observed for MSO | Ac-MGRFTINP-NH2 [6b]
